Measured values published in ChEMBL document CHEMBL1201862, “PubChem BioAssay data set” (2004).
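Five compound concentrations were applied to cells in 96-well plates for 48 hours; endpoints were derived by simple linear interpolation of the resulting dose-response curve. Here, GI50 denotes the concentration required for 50% inhibition of growth.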 Active and inactive are the calls of the source. Rule as the data show it: active = GI50 up to about 1.1 µM and inactive = higher.

Legend:
Assay in all cases: inhibition of tumour cell growth, NCI panel, 48 h
[1] = test system: OVCAR-3
[2] = test system: UACC-62
[3] = test system: SK-MEL-28
[4] = test system: SW-620
[5] = test system: HCT-15
[6] = test system: K562
[7] = test system: RXF 393
[8] = test system: LOX IMVI
[9] = test system: NCI-H226
[10] = test system: OVCAR-8
[11] = test system: TK-10
[12] = test system: OVCAR-4
[13] = test system: SR
[14] = test system: SNB-75
[15] = test system: HOP-92
[16] = test system: SK-OV-3
[17] = test system: SK-MEL-5
[18] = test system: RPMI-8226
[19] = test system: ACHN
[20] = test system: CCRF-CEM

Structure (SMILES)	GI50 [1]	GI50 [2]	GI50 [3]	GI50 [4]	GI50 [5] [µM]	GI50 [6]	GI50 [7]	GI50 [8]	GI50 [9]	GI50 [10]	GI50 [11]	GI50 [12]	GI50 [13]	GI50 [14]	GI50 [15]	GI50 [16]	GI50 [17]	GI50 [18]	GI50 [19]	GI50 [20]
COc1cc(C=O)cc(/C=N/c2ccc(S(N)(=O)=O)cc2)c1O	26.1 µM (inactive)	23.8 µM (inactive)	4.36 µM (inactive)	24.4 µM (inactive)	63.1	47 µM (inactive)	3.99 µM (inactive)	10.9 µM (inactive)	4.3 µM (inactive)	6.21 µM (inactive)	31.7 µM (inactive)	> 100 µM (inactive)	6.11 µM (inactive)	23.9 µM (inactive)	2.86 µM (inactive)	2.9 µM (inactive)	4.91 µM (inactive)	7.13 µM (inactive)	3.82 µM (inactive)	9.77 µM (inactive)
COc1cccc(/C=C/C(=O)c2sc(C(N)=S)nc2C)c1O	> 60.3 µM (inactive)	> 100 µM (inactive)	> 100 µM (inactive)	21.2 µM (inactive)	26.1	42.4 µM (inactive)	> 74.3 µM (inactive)	22.4 µM (inactive)	> 100 µM (inactive)	> 96.2 µM (inactive)	> 100 µM (inactive)	> 72.8 µM (inactive)	12.5 µM (inactive)	> 100 µM (inactive)	> 100 µM (inactive)	> 100 µM (inactive)	> 100 µM (inactive)	20.5 µM (inactive)	> 100 µM (inactive)	21.4 µM (inactive)
Cc1nc2ccccc2cc1C[N+]12CN3CN(CN(C3)C1)C2	28.1 µM (inactive)	17.2 µM (inactive)	18.7 µM (inactive)	5.35 µM (inactive)	15.2	29.2 µM (inactive)	16.6 µM (inactive)	14.7 µM (inactive)	23.6 µM (inactive)	30.3 µM (inactive)	24.9 µM (inactive)	22.3 µM (inactive)	19 µM (inactive)	17.9 µM (inactive)	45.2 µM (inactive)	32.7 µM (inactive)	18.4 µM (inactive)	3.4 µM (inactive)	17.1 µM (inactive)	0.962 µM (active)
C=C(C)COc1ccc2c(c1)CCC1C2CCC2(C)C(=O)/C(=N/O)CC12 (stereo not given)	3.43 µM (inactive)	14.9 µM (inactive)	17.2 µM (inactive)	1.99 µM (inactive)	2.41	2.73 µM (inactive)	1.19 µM (inactive)	3.08 µM (inactive)	9.31 µM (inactive)	6.92 µM (inactive)	1.35 µM (inactive)	2.39 µM (inactive)	0.966 µM (active)	1.9 µM (inactive)	2.3 µM (inactive)	8.55 µM (inactive)	8.11 µM (inactive)	2.39 µM (inactive)	3.12 µM (inactive)	1.94 µM (inactive)
CCCc1[nH]c2ccccc2c1-c1c(CCC)[nH]c2ccccc12	8.2 µM (inactive)	13.3 µM (inactive)	7.46 µM (inactive)	6.76 µM (inactive)	3.62	7.74 µM (inactive)	20 µM (inactive)	4.35 µM (inactive)	19.2 µM (inactive)	3.35 µM (inactive)	21.6 µM (inactive)	21.5 µM (inactive)	19 µM (inactive)	19.4 µM (inactive)	19.5 µM (inactive)	24.1 µM (inactive)	10.2 µM (inactive)	19.7 µM (inactive)	16.9 µM (inactive)	8.26 µM (inactive)
CC(SC1=CC(=O)c2c(O)ccc(O)c2C1=O)C(=O)O (stereo not given)	21.4 µM (inactive)	17.5 µM (inactive)	> 55.1 µM (inactive)	> 40.8 µM (inactive)	> 37	13.8 µM (inactive)	> 48.4 µM (inactive)	> 41.2 µM (inactive)	> 58.5 µM (inactive)	23.5 µM (inactive)	> 51.5 µM (inactive)	17 µM (inactive)	> 52.8 µM (inactive)	> 50.5 µM (inactive)	> 58.5 µM (inactive)	> 100 µM (inactive)	> 61.5 µM (inactive)	> 52.8 µM (inactive)	26.7 µM (inactive)	3.08 µM (inactive)
COc1ccc2cc(CN3CCC(C4CCN(Cc5ccc6cc(OC)ccc6c5)CC4)CC3)ccc2c1	3.1 µM (inactive)	1.97 µM (inactive)	2.21 µM (inactive)	2.64 µM (inactive)	1.45	0.455 µM (active)	5.16 µM (inactive)	2.14 µM (inactive)	16.6 µM (inactive)	5.15 µM (inactive)	3.25 µM (inactive)	4.42 µM (inactive)	1.24 µM (inactive)	4.45 µM (inactive)	2.37 µM (inactive)	26.3 µM (inactive)	1.66 µM (inactive)	1.52 µM (inactive)	7.35 µM (inactive)	2.16 µM (inactive)
CC1=NN(c2ccccc2)C(=O)C12[C@H](c1ccccc1)C2(C#N)C#N (stereo not given in full)	7.03 µM (inactive)	3.44 µM (inactive)	3.48 µM (inactive)	1.87 µM (inactive)	2.49	1.85 µM (inactive)	5.19 µM (inactive)	1.78 µM (inactive)	12.8 µM (inactive)	2.84 µM (inactive)	12.5 µM (inactive)	5.46 µM (inactive)	1.91 µM (inactive)	6.11 µM (inactive)	2.64 µM (inactive)	18.6 µM (inactive)	4.48 µM (inactive)	1.91 µM (inactive)	8.36 µM (inactive)	0.457 µM (active)
CCOC(=O)/C=C1\Oc2ccccc2C1(C)O (stereo not given)	> 100 µM (inactive)	> 100 µM (inactive)	> 100 µM (inactive)	> 100 µM (inactive)	> 100	> 100 µM (inactive)	> 100 µM (inactive)	> 100 µM (inactive)	> 100 µM (inactive)	> 100 µM (inactive)	> 100 µM (inactive)	> 100 µM (inactive)	> 100 µM (inactive)	> 100 µM (inactive)	> 100 µM (inactive)	> 100 µM (inactive)	> 100 µM (inactive)	> 100 µM (inactive)	> 100 µM (inactive)	> 100 µM (inactive)
C=C(Cl)C(Br)(CCl)CCC(Br)C(C)(C)Cl (stereo not given)	6.17 µM (inactive)	3.37 µM (inactive)	4.68 µM (inactive)	1.71 µM (inactive)	3.26	2.44 µM (inactive)	2.72 µM (inactive)	1.25 µM (inactive)	5.32 µM (inactive)	3.38 µM (inactive)	12.2 µM (inactive)	8.83 µM (inactive)	2.92 µM (inactive)	3.6 µM (inactive)	9.75 µM (inactive)	14 µM (inactive)	2.47 µM (inactive)	2.06 µM (inactive)	7.96 µM (inactive)	0.92 µM (active)
C/C(=N\N=C(/S)N1CCCCCC1)c1cccc[n+]1[O-]	0.61 µM (active)	1.88 µM (inactive)	6.58 µM (inactive)	1.64 µM (inactive)	0.845	0.0883 µM (active)	18.4 µM (inactive)	4.52 µM (inactive)	7.69 µM (inactive)	3.12 µM (inactive)	21.5 µM (inactive)	8.17 µM (inactive)	4.01 µM (inactive)	10.5 µM (inactive)	11.1 µM (inactive)	20.8 µM (inactive)	2.22 µM (inactive)	0.116 µM (active)	4.58 µM (inactive)	0.109 µM (active)
COc1ccc(/C=c2/s/c(=C(\C#N)c3nc4ccccc4[nH]3)n(-c3ccccc3)c2=O)cc1	26.8 µM (inactive)	> 28.3 µM (inactive)	48.2 µM (inactive)	25.2 µM (inactive)	> 53.6	> 100 µM (inactive)	36 µM (inactive)	36.9 µM (inactive)	16.9 µM (inactive)	14.6 µM (inactive)	> 52.7 µM (inactive)	6.92 µM (inactive)	> 100 µM (inactive)	> 26.4 µM (inactive)	12.6 µM (inactive)	2.96 µM (inactive)	> 92.7 µM (inactive)	> 100 µM (inactive)	> 82.4 µM (inactive)	> 100 µM (inactive)
CCn1c(SCC(=O)N/N=C/c2ccccc2)nc2ccccc2c1=O	10 µM (inactive)	5.52 µM (inactive)	39.4 µM (inactive)	1.99 µM (inactive)	3.87	1.87 µM (inactive)	7.19 µM (inactive)	6.68 µM (inactive)	10.8 µM (inactive)	16.3 µM (inactive)	> 55.1 µM (inactive)	14.1 µM (inactive)	0.478 µM (active)	12.8 µM (inactive)	26.9 µM (inactive)	17.8 µM (inactive)	7.94 µM (inactive)	14.2 µM (inactive)	36 µM (inactive)	9.89 µM (inactive)
CCCCCC[N+](C)(C)Cc1ccc(C[N+](C)(C)CCCCCC)cc1	3.78 µM (inactive)	8.32 µM (inactive)	4.95 µM (inactive)	4.84 µM (inactive)	4	1.61 µM (inactive)	0.984 µM (active)	2.09 µM (inactive)	3.51 µM (inactive)	3.1 µM (inactive)	5.64 µM (inactive)	4.58 µM (inactive)	2.19 µM (inactive)	2.8 µM (inactive)	2.97 µM (inactive)	9.66 µM (inactive)	6.64 µM (inactive)	4.23 µM (inactive)	3.56 µM (inactive)	2.73 µM (inactive)
